Literature values in patent publication US4806659A, “Tannin compounds” (Kabushiki Kaisha Tsumura Juntendo, priority 1985, dated 1989).

Conditions: known drugs, schizophrenia

SMILES | anti-hallucination and -delution effects | sedative effect
OCCN1CCN(CCCN2c3ccccc3Sc3ccc(Cl)cc32)CC1 [perphenazine] | strong anti-hallucination and -delution effects | 
O=C(CCCN1CCC(O)(c2ccc(Cl)cc2)CC1)c1ccc(F)cc1 [haloperidol] | strong anti-hallucination and -delution effects | 
CN(C)CCCN1c2ccccc2Sc2ccc(Cl)cc21 [chlorpromazine] |  | strong sedative effect
CCN1CCCC1CNC(=O)c1cc(S(N)(=O)=O)ccc1OC (stereo not drawn) [sulpiride] |  | mild sedative effect
OCCN1CCN(CCCN2c3ccccc3Sc3ccc(C(F)(F)F)cc32)CC1 [fluphenazine] | strong anti-hallucination and -delution effects | 
COc1ccc2c(c1)N(C[C@H](C)CN(C)C)c1ccccc1S2 [Levomepromazine] |  | strong sedative effect
